Source: US9464326B2, “Total and phosphorylated IL-1 receptor-associated kinase-1 and IL-1 receptor-associated kinase-4 as a biomarker for cancer progression and chemotherapy resistance” (University of Maryland, Baltimore, priority 2012, dated 2016)

What was measured:
[1] = system: H9; assay: Proliferation (3H-thymidine) of H9; format: cell-based, human
Description: (§1) CCRF-CEM, CEM/C1, CEM/C2, CEM-C7, Jurkat, Loucy, Molt-4, HSB-2, SUP-T1, Hut 78, HH, Hut 102, MO, and H9 T-leukemia and T-lymphoma cell lines were purchased from the American Type Culture Collection (Manassas, Va., USA). All of the cell lines were initially expanded and cryopreserved within one month of receipt. Cells were typically used for 6 months at which time a fresh vial of cryopreserved cells was used. Total T cells from healthy donors were isolated via negative selection followed by positive selection using a CD3+ selection kit (Invitrogen, Carlsbad, Calif.). T cells were isolated from patients with T-ALL bone marrow or peripheral blood samples containing more than 70% leukemia cells using a CD2+ isolation kit (STEMCELL Technologies, Vancouver, Canada). All tissues were collected under institutional IRB-approved protocols and all participants gave written informed assent/consent. For in vitro experiments, T-ALL cells were cultured in AIM-V medium supplemented with 20% human AB serum in the presence of recombinant human stem cell factor (50 ng/mL; Amgen, Thousand Oaks, Calif.), insulin (20 nM; Sigma-Aldrich, St Louis, Mo., USA) and IL-7 (50 ng/mL; R&D Systems, Minneapolis, Minn., USA). In other experiments, protein lysate was collected using the Full Moon Biosystems (Sunnyvale, Calif., USA) buffer prior to protein examination by western blot or protein array.
Cells were cultured in a 96-well plate (Corning Costar, Corning, N.Y., USA) with various concentrations of TLR ligands 1-9, starting at 10 μg/ml, in a final volume of 200 ul. TLR ligands were diluted 2-fold. Cell lines (25-40×10^3/well) were cultured for 54 hours, whereas fresh patient-derived T-ALL cells (200×10^3/well) were cultured for 30 hours prior to adding [^3H]-thymidine for 18 hours. After this time point, cells were harvested with a Packard Filter-Mate-96 cell harvester (Perkin Elmer, Waltham, Mass., USA) and counted on Packard Top Count-NXT (Perkin Elmer, Waltham, Mass., USA). Results were expressed as average counts per minute (cpm). In some experiments CCRF-CEM cells were pre-treated with TLR1-TLR2 ligand (Pam3CysK4; 2.5 ug/ml) for 48 hrs, washed, and then cultured in the presence of varying concentrations of FBS. Forty-eight hours later, proliferation (±SD) was determined by ^3H-thymidine incorporation. Alternatively, apoptosis was measured by flow cytometry after staining cells with Annexin-V (BD Pharmingen, San Diego, Calif., USA) and propidium iodide (Sigma). Cell number was counted under microscopy by staining cells with trypan blue.
The following TLR ligands were purchased from Invivogen (San Diego, Calif., USA): tripalmitoyl-S-(bis(palmitoyloxy)propyl)-Cys-Ser-(Lys)3-Lys (TLR1-2); Poly I:C (TLR3); ultrapure S. Minnesota Lipopolysaccharide (TLR4); S. typhimurium flagellin (TLR5); FSL-1 (TLR2/6); Imiquimod (TLR7); ssRNA40/Lyovec (TLR8); CpG-ODN 2006 (TLR9).

[2] = system: Molt-4; assay: Proliferation (3H-thymidine) of Molt-4; format: cell-based, human; settings: 3H-thymidine uptake, 72 h
Description: as §1, with “In other experiments, protein lysate was collected using the Full Moon Biosystems (Sunnyvale, Calif., USA) buffer prior to protein examination by western blot or protein array.” left out
Cells were cultured in a 96-well plate (Corning Costar, Corning, N.Y., USA) with various concentrations of TLR ligands 1-9, starting at 10 μg/ml, in a final volume of 200 ul. […] After this time point, cells were harvested with a Packard Filter-Mate-96 cell harvester (Perkin Elmer, Waltham, Mass., USA) and counted on Packard Top Count-NXT (Perkin Elmer, Waltham, Mass., USA). Results were expressed as average counts per minute (cpm). […] Forty-eight hours later, proliferation (±SD) was determined by ^3H-thymidine incorporation. Alternatively, apoptosis was measured by flow cytometry after staining cells with Annexin-V (BD Pharmingen, San Diego, Calif., USA) and propidium iodide (Sigma). Cell number was counted under microscopy by staining cells with trypan blue. […]

[3] = system: patient T-ALL samples; assay: SA-β-gal activity in patient T-ALL samples from treated NSG mice; format: in vivo; settings: p<0.05, FIG. 15C
Description: Analysis of senescence-associated β-galactosidase (SA-β-gal) activity was performed using the 96-Well Cellular Senescence Assay Kit (Cell Biolabs, San Diego, Calif.) as per the manufacturer's protocol. In brief, cells were washed with PBS, lysed with cell lysis buffer, and incubated at 37° C. with SA-β-gal substrate for 1 hour. A quantitative Cellular Senescence Assay Kit (SA-β-gal, Fluorometric) (Cell Biolabs, San Diego, Calif.) was used for more quantitative measurement of SA-β-gal activity by flow cytometry. Briefly, control and treated CCRF-CEM cells were incubated with 1× cell pretreatment solution in culture medium for 2 hrs, and the fluorogenic substrate was then directly added into the culture. After 4 hrs, the cells were washed and analyzed by flow cytometry.
CCRF-CEM (2×10^6) cells were injected intravenously (i.v.) into female NOD.Cg-Prkdc^scid Il2rg^tm1WJl/SzJ IL2RG (NSG) mice (Jackson Laboratories, Bar Harbor, Me.). […] In some experiments mice were injected i.v. with TLR1-TLR2 ligand (2.5 μg) two days after injecting cells. […] The numbers of T-ALL cells in the bone marrow, spleen, liver, and in circulation were determined by staining cells with anti-human CD7 and/or CD5. […]

[4] = system: CCRF-CEM cells; assay: Cell cycle analysis (PI staining); format: cell-based, human; settings: 5 uM
Description: Control and treated cells were collected, fixed and stained with propidium iodide (100 μg/mL) in PBS containing sodium citrate (1 mg/mL), Triton-X-100 (0.1%), and RNAse (20 μg/mL) for 30 min. Data were acquired on a BD FACScan flow cytometer using CellQuest software (BD Immunocytometry Systems, San Jose, Calif.) and analyzed by using FlowJo software (Tree Star, Inc., Ashland, Oreg.).
It was investigated whether the reduced proliferation that we observed with IRAK-1,-4 inhibitor (FIG. 11 and FIG. 12) was a result of cell cycle arrest or apoptosis. CCRF-CEM cells were treated with IRAK-1,-4 inhibitor for 24, 48, 72, and 96 hours.

Molecule: tripalmitoyl-S-(bis(palmitoyloxy)propyl)-Cys-Ser-(Lys)3-Lys [Pam3Cysk4]
- Proliferative effects of TLR ligands ([1]; H9, 3H-thymidine uptake, 72 h): ∘
- effect on proliferation (in words) ([1]; H9 T-lymphoma, FIG. 1A): no effect on proliferation
- Proliferative effects of TLR ligands [2]: ∘

Molecule: O=C(Nc1nc2ccccc2n1CCN1CCOCC1)c1cccc([N+](=O)[O-])c1 [IRAK-1,-4 inhibitor]
- SA-β-gal activity [3]: increased SA-β-gal activity
- decrease of percentage of cells in S phase ([4]; FIG. 14C): ~30%
- percentage of cells in G0/G1 phase ([4]; after 96 hours): 50%
- percentage of cells in G0/G1 phase ([4]; within 24 hours (from 25%)): 43%
